Laboratory results reported in US5378694A, “Acyl and alkoxy substituted quinolines” (Schering Corporation, priority 1993, dated 1995).
Like-named read-outs stand apart in the source and are kept apart here.

Assays:
HSV-2, strain MS = experiment: In vivo anti-HSV efficacy, prophylactic guinea pig model of HSV infection; details: 60 mg per kg s.c., T.I.D., 10 days; for Neurological Dysfunction (%): percentage of animals developing loss of bladder/hindlimb control, placebo 66; for MLS (Maximum Lesion Scores): scale of 1 to 4, first dose 24 hours before infection, placebo 2.22
Procedure: The in vivo assessment of anti-HSV efficacy was determined in the prophylactic guinea pig model of HSV infection described by Stansberry et al. (1982). Dosing of guinea pigs comprised an initial treatment with test compound given 24 hours prior to virus infection and subsequent administration of the compound every eight hours (T.I.D.) for a total of 10 days. Test compounds were administered subcutaneously in 0.5% buffered methyl cellulose at a dose of 60 mg per kg body weight of the animal. Animals were monitered daily for the development of genital lesions and neurological symptomology, both of which were recorded and compared to the results obtained with parallel groups which received placebo or acyclovir. Efficacy was evaluated for each compound by scoring the ability of the compound to ameliorate genital lesions produced by infection with HSV-2, strain MS, expressed as Maximum Lesson Scores (MLS) on a scale of 1 (least lessions) to 4 (severe lessons).

HSV-2 (strain MS) = experiment: Transient expression of beta galactosidase in transfected HeLa cells superinfected with HSV-2 (HSV-β-Gal assay); assay type: cell-based; details: 24 hours
Procedure: HeLa and Vero cell cultures were maintained in Eagles Minimal Essential Medium (EMEM) which was supplemented with glutamine, penicillin, streptomycin and 10% fetal calf serum (10% EMEM). Stock cultures of HSV-2 (strain MS available from ATCC VR-540) were grown in and harvested from Vero cells. Viral stocks were titered in Vero cells according to established procedures.
Plasmid pON^ori- 245 contains the promoter of the HSV-1 thymidine kinase (tk) gene located immediately 5' of the E. coli lac Z gene. In this arrangement, the tk promoter controls transcription from the bacterial gene in transient expression assays. Additionally, an SV40 polyadenylation signal is present at the 3' end of the lac Z gene to allow for the efficient translation of the mRNA in eucaryotic cells. The expression of beta galactosidase in a transient assay using pON 245^ori- is dependent upon superinfection of the transfected cells with HSV. […] For example, see European Patent Application No. 88302149.5 filed Mar. 11, 1988 and published Sep. 14, 1988 as 282,330, the disclosure of which is incorporated herein by reference thereto.
HeLa cells were seeded into 96 well microtiter plates and allowed to grow to 80% confluency (approximately 35000 cells/well). One half microgram of plasmid pON 245^ori- DNA was introduced into the cells of each well by the […] precipitation technique (Grabman and Van der Eb, 1973). Four to six hours later, the cells were rinsed with Hank's Balanced Salt Solution (HBSS), overlaid with 10% EMEM and incubated at 37° C. At 24 hours post-transfection, cells were rinsed, overlaid with 10% EMEM again and re-incubated at 37° C. At 48 hours post-transfection, cells were rinsed and overlaid with either EMEM containing 2% fetal calf serum (2% EMEM), 2% EMEM containing HSV-2 (strain MS, Multiplicity of Infection [moi]=5 pfu/cell) or 2% EMEM containing HSV-2 and the appropriate concentration of the compound to be tested. Twenty-four hours later, the cells were harvested and assayed for beta-galactosidase activity as described below.
All determinations of beta galactosidase activity were performed in 96-well microtiter plates. The intracellular level of beta-galactosidase activity in each well was determined from cell lysates of the monolayer cultures. Aliquots were assayed by incubation in the presence of beta-galactosidase substrate, 4-methylumbelliferyl-β-D-galactoside (MUG, 125 ug/ml, Sigma), for 2 hours. The generation of fluorescent product was quantified on a Microfluor microfluorimeter (Dynatech) after addition of 0.1M glycine, pH 10.3 (Spaete and Mocarski, 1985). The inhibitory activity of a compound was plotted versus the concentration and an IC50 value (the concentration in mcg/ml of compound required to reduce beta-galactosidase expression by 50%) was obtained for each compound tested.

[1] = Compound toxicity assay: inhibition of HeLa cell translation (3H-LEU assay); assay type: cell-based; details: human; HeLa cells, cellular translational activity; read-out: CYTOTOXICITY 3H-LEU ASSAY IC50
Procedure: HeLa cells were treated with inhibitory compound for 24 hours, after which levels of translational activity were assayed.
For assay of translational activity, HeLa cultures were grown to 80% confluency in 96 well microtiter plates, treated with appropriate concentrations of compound in 2% EMEM during an overnight incubation at 37° C., then rinsed with HBSS and overlaid with […] of 2% EMEM containing 8 μCi of tritiated leucine (^3 H-LEU, 141 Cu/mMol, Amersham Corp., Arlington Heights Ill.). After a 1 hour incubation at 36.5° C., the cells were rinsed twice with phosphate-buffered saline (PBS) and lysed in 400 ul/well of 1 × PBS, 0.5% sodium dodecyl sulphate (SDS). After a 10 min incubation at 36.5° C., the contents of the well were transferred to a well in a Millititer HA microfiltration plate (Millipore Corp., Bedford, Mass.). The TCA-insolubleproteins were precipitated onto the filter disc by a 10 min fixation with 5% TCA, followed by filtration under vacuum and three 10 minute rinses with 95% ethanol. The filters were dried at room temperature, cut from the milltitier plate and transferred to scintillation vials. TCA-precipitable counts were assayed in 5 ml of Scintisol (Isolab, Akron, Ohio). The inhibitory activity of a compound was plotted versus the concentration and an IC50 value (that concentration of the compound required to decrease cellular translational activity by 50%) was derived for each compound.

HSV-2 = details: against HSV-2; cited from earlier work
HSV-1 = details: against HSV-1; cited from earlier work
herpes virus = details: mammals; cited from earlier work
HSV = details: humans; cited from earlier work
[2] = SHR assay, blood pressure in conscious spontaneously hypertensive rats; assay type: in vivo, rat (spontaneously hypertensive rats; details: P.O.
Procedure: The ability of the compounds to lower blood pressure can be assessed in vivo in conscious spontaneously hypertensive rats (SHRs). SHR males are purchased from Taconic Farms, Germantown, N.Y. and are approximately 16-18 weeks old when anesthetized with ether. The caudal (ventral tail) artery is cannulated with polyethylene tubing (PE50), and blood pressure and heart rate are recorded as described by Baum, T. et. al., J. Cardiovasc. Pharmacol., Vol 5, pp. 655-667 (1983). Rats are placed into plastic cylindrical cages where they rapidly recover consciousness. Blood pressure and heart rate are allowed to stabilize for approximately 90 minutes prior to administration of the test compound. Compounds are administered orally as solutions or suspensions in 0.4% aqueous methylcellulose vehicle via a feeding needle. The compound or 0.4% aqueous methylcellulose vehicle is given in a volume of 4 ml/kg to SHRs that been fasted overnight. Activity is expressed as the fall in mean blood pressure (MBP) in millimeters of mercury (mm Hg). Compound-induced changes are compared with the changes in an appropriate placebo group.

[3] = target: T1, cGMP phosphodiesterase (cGMP-PDE) (Bos taurus, UniProt Q28156); experiment: Phosphodiesterase inhibition in vitro (cGMP-PDE); assay type: biochemical; details: bovine lung cGMP-PDE; 1 μM 3H-cGMP, pH 7.5, 25 minutes, room temperature
T1 construct: is a homogeneous enzyme obtained from bovine lung; from tissue; host or cells: bovine lung

[4] = Human alphaherpesvirus 2, moi 5 pfu/cell, read-out: ANTI-HSV ACTIVITY HSV-β-Gal ASSAY IC50
[5] = Human alphaherpesvirus 2, Repeat, moi 5 pfu/cell, read-out: ANTI-HSV ACTIVITY HSV-β-Gal ASSAY IC50 (repeat)

Structure (SMILES) | IC50 (HSV-2 (strain MS); [4]) | CC50 at 24 h [1] | also measured
Nc1nc2c(ncn2COCCO)c(=O)[nH]1 [Acyclovir, 9-[(2-hydroxyethoxy)methyl]guanine, reference compound] |  |  | Neurological Dysfunction (%) (HSV-2, strain MS): 44%; MLS (Maximum Lesion Scores) (HSV-2, strain MS): 1.61
CC1(C)C(=O)C(C=O)=C(O)c2ccccc21 [Formula 1.16] | 7 µg/mL | 34 µg/mL | 
CCN(CC)CC(=O)Nc1c(C)cccc1C [lidocaine, 2-(diethylamino)-N-(2,6-dimethylphenyl)acetamide] |  |  | antiviral activity in cell culture (in words) (HSV-2): antiviral agent in cell culture against HSV-1 and HSV-2; antiviral activity in cell culture (in words) (HSV-1): antiviral agent in cell culture against HSV-1 and HSV-2; treatment of herpes virus infections (in words) (herpes virus): able to treat herpes virus infections of mammals; treatment of HSV oral and genital lesions (in words) (HSV): particularly effective in the treatment of HSV oral and genital lesions in humans
CCCCCCCn1c(=O)c(C=O)c(O)c2ccccc21 [Formula 1.4] | 4 µg/mL | 32 µg/mL | IC50 (HSV-2 (strain MS); [5]): 4 µg/mL
O=Cc1c(O)c2ccccc2n(Cc2ccccc2)c1=O [Formula 1.8] | 7 µg/mL | 29 µg/mL | 
O=Cc1c(O)c2ccc(Cl)cc2n(Cc2ccccc2)c1=O [Formula 1.15] | 5 µg/mL | 23 µg/mL | 
COc1ccc(OCCCOCn2c(=O)c(C=O)c(O)c3ccccc32)c(Cl)c1 [Formula 1.14] | 18 µg/mL |  | 
Cc1cccc2c(O)c(C=O)c(=O)n(Cc3ccccc3)c12 [Formula 1.3] | 3 µg/mL | 29 µg/mL | Fall in MBP ([2]; 25 mpk): 7 mm Hg; IC50 [3]: 10 µM
O=Cc1c(O)c2cc(OCc3ccccc3)ccc2n(Cc2ccccc2)c1=O [Formula 1.10] | 10 µg/mL | 32 µg/mL | 
O=Cc1c(O)c2cc(Cl)ccc2n(Cc2ccccc2)c1=O [Formula 1.6] | 4 µg/mL | 15 µg/mL | Fall in MBP ([2]; 25 mpk): 48 mm Hg; IC50 [3]: 17 µM
O=Cc1c(O)c2ccccc2n(-c2ccccc2)c1=O [Formula 1.9] | 8 µg/mL | 12 µg/mL | Neurological Dysfunction (%) (HSV-2, strain MS): 0%; MLS (Maximum Lesion Scores) (HSV-2, strain MS): 0.67; IC50 [3]: 18 µM
Cc1ccc2c(c1)c(O)c(C=O)c(=O)n2Cc1ccccc1 [Formula 1.5] | 4 µg/mL | 16 µg/mL | Fall in MBP ([2]; 50 mpk): 40 mm Hg; IC50 [3]: 90 µM
CCCCCCn1c(=O)c(C=O)c(O)c2ccccc21 [Formula 1.11] | 8 µg/mL | 20 µg/mL | 
Cn1c(=O)c(C=O)c(O)c2ccccc21 [Formula 1.7] | 7 µg/mL | 56 µg/mL | IC50 (HSV-2 (strain MS); [5]): 7 µg/mL
O=Cc1c(O)c2cc(O)ccc2n(Cc2ccccc2)c1=O [Formula 1.12] | 13 µg/mL |  | 
